# Literature values in patent US6872523B1, “Materials and methods for molecular detection of clinically relevant pathogenic fungal species” (The Board of Regents of the University of Nebraska, priority 2000, dated 2005).
# What was measured:
# A. niger = details: low end of the reported MIC range
# A. fumigatus = details: low end of the reported MIC range
# A. flavus = details: high end of the reported MIC range
# A. nidulans = details: high end of the reported MIC range
# A. terreus isolates = details: share of A. terreus isolates resistant to AmB (refs 10, 17, 22)
smiles,measurement,setting,value
"C[C@@H]1[C@H](O)[C@@H](C)/C=C/C=C/C=C/C=C/C=C/C=C/C=C/[C@H](O[C@@H]2O[C@H](C)[C@@H](O)[C@H](N)[C@@H]2O)C[C@@H]2O[C@](O)(C[C@@H](O)C[C@@H](O)[C@H](O)CC[C@@H](O)C[C@@H](O)CC(=O)O[C@H]1C)C[C@H](O)[C@H]2C(=O)O [AmB, amphotericin B]",AmB MIC,A. niger,0.5 µg/mL
same,AmB MIC,A. fumigatus,0.5 µg/mL
same,AmB MIC,A. flavus,16 µg/mL
same,AmB MIC,A. nidulans,16 µg/mL
same,isolates reported as resistant,A. terreus isolates,over 95%
